The record followed here is patent publication US20090281120A1, “BICYCLIC HETEROCYCLIC COMPOUND” (ONO PHARMACEUTICAL CO., LTD, priority 2005, published 2009).

For experiment [1], the target named is T1, human CRF receptor I (Homo sapiens, UniProt P34998).
T1 construct: expressed in transfected cells; host or cells: CHO-K1
T1 sequence (P34998 24-415): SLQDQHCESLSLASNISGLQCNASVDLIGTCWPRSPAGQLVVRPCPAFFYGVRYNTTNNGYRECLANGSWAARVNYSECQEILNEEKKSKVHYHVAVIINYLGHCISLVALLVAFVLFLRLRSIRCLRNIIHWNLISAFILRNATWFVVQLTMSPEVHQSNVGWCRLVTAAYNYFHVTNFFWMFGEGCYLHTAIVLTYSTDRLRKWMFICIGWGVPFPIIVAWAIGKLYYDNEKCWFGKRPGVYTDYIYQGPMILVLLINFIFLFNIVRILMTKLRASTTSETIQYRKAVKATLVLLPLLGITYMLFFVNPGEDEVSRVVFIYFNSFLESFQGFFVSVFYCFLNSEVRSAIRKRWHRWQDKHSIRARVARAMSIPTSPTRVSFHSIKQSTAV
The experiment can be described thus: Binding assay (125I-CRF, membrane fraction). Particulars: 125I-CRF 0.25 nM; membrane fraction of CHO-K1 cells forcedly expressing human CRF receptor I; room temperature, 2 hours. As to the method: The forced-expression cell strain of the human CRF receptor I (parent strain is CHO-K1 cell) was cultured until the cell was confluent and collected with a scraper. The collected cells were washed twice with PBS, and were suspended with an ice-colded binding assay buffer (Tris-HCl (50 mM, pH 7.0), EDTA (2 mM, pH 8.0), and MgCl2 (10 mM))). After fractured with a dounce-type homogenizer, the suspended cells were centrifuged at 10,000 g, and a membrane fraction was collected. The collected membrane fraction was resuspended with a little amount of the binding assay buffer, thereafter diluted with the binding assay buffer so as to have a concentration of 1 mg/mL. The obtained membrane fraction was used for a binding assay.
^125I-CRF was diluted with the binding assay buffer so as to have a concentration of 0.5 nM, whereby 50 μL of the diluted ^125I-CRF was added to a siliconized 1.5-mL tube. Next, test drugs diluted at appropriate times, such as DMSO (for general binding) or 100 μM of CRF (for non-specific binding), was added to a […]. Finally, 50 μL of the membrane fraction was added thereto and the reaction was started (final concentration of ^125I-CRF was 0.25 nM). The tube was incubated at room temperature for 2 hours. […] A membrane binding count was measured using a γ counter.
The specific binding count was obtained by subtracting the non-specific count from the measured count.

Experiment [2] concerns the target T1, human CRF receptor I. Nature of the experiment: Receptor antagonistic activity (cyclic AMP assay). The class given is cell-based. The following applies: forced expression cell strain of human CRF receptor I; stimulated with human/rat CRF; 37° C., 15 minutes; read-out: antagonistic activity against CRF IC50 value (accumulated cyclic AMP). The procedure:
The forced expression cell strain of the human CRF receptor I was cultured at 37° C. under 5% carbon dioxide and 95% air by using a Ham's F-12 medium (F-12 nutrient mixture) containing 10% bovine fetal serum and 1% antibiotic substance-antifungal agent. On the previous day before the cyclic AMP was measured, the cells were inoculated into a 96-well plate in an amount of 1×10^4 cell/well. On the measurement day, the cells were washed twice with a Ham's F-12 medium, whereby a solution of Ham's F-12 medium/1 mM 3-isobutyl-1-methylxanthine (assay medium) (178 μL) was added to each well. After the incubation at 37° C. for 10 minutes, test drug solutions (2 μL) in various concentrations were added thereto, or DMSO (2 μL) was added to a CRF group and a blank group. An assay medium (20 μL) containing 10 nM human/rat CRF was added to wells of a compound group and the CRF group. An assay medium (20 μL) containing 0.00001% acetic acid was added to the blank group. Each group was further incubated at 37° C. for 15 minutes. […] The accumulated cyclic AMP amounts were calculated by subtracting mean values of corresponding 2 wells in the blank group from that of 2 wells. The IC50 values were calculated with non-linear regression analysis by defining logarithm concentration of the compound as independent variable and an accumulated cyclic AMP amount as dependent variable.

The term IC50 denotes the concentration that gives 50% inhibition. As to `CCC(CC)c1cc(C)c2nc(-c3ccc(OC)cc3Cl)c(C)n2c1` [Example 7, 2-(2-chloro-4-methoxyphenyl)-6-(1-ethylpropyl)-3,8-dimethylimidazo[1,2-a]pyridine], the results for the 50% inhibitory concentration (IC50) at human CRF receptor I [1] and on human CRF receptor I [2] were 12 nM and 41 nM, respectively.
